Active and inactive are the calls of the source. The rule behind the calls is not given here.
Columns and labels:
[1] = tested on: SARS-CoV-2; assay: (§1) Antiviral activity against SARS CoV-2 Wuhan infected in African green monkey Vero E6 cells assessed as inhibition of viral replication pretreated for 15 mins followed by compound removal and induction of viral infection for 1 hr and subsequent removal of inoculum and further addition of media containing compound measured after 48 hrs by RT-qPCR analysis; format: functional, organism-based; conditions: Severe acute respiratory syndrome coronavirus 2, time 48.25 hrs
[2] = tested on: Vero C1008; assay: Cytotoxicity against African green monkey Vero E6 cells assessed as cell viability at 5 uM incubated for 48 hrs by MTT assay; format: toxicity, cell-based; conditions: chlorocebus sabaeus, vero c1008, 48 h, 5 µM
[3] = tested on: SARS-CoV-2; assay: as §1, with “virus inactivation at 10 uM” for “inhibition of viral replication”, “analysis relative to control” for “analysis”; format: functional
[4] = Stability in human plasma assessed as half life at 2 uM measured up to 120 mins by LC-MS/MS analysis; format: ADME, cell-free
[5] = Stability in mouse plasma assessed as half life at 2 uM measured up to 120 mins by LC-MS/MS analysis; format: ADME, cell-free
[6] = Stability in human plasma assessed as compound remaining at 2 uM measured after 60 mins by LC-MS/MS analysis; format: ADME, cell-free; conditions: read-out: Stability
[7] = Stability in mouse plasma assessed as compound remaining at 2 uM measured after 60 mins by LC-MS/MS analysis; format: ADME, cell-free; conditions: read-out: Stability
[8] = tested on: SARS-CoV-2; assay: as §1, with “24” for “48”, “cell-based ELISA” for “RT-qPCR analysis”; format: functional, organism-based; conditions: for inhibition: Severe acute respiratory syndrome coronavirus 2, time 24.25 hrs; for IC50: Severe acute respiratory syndrome coronavirus 2, Wuhan, Vero C1008
[9] = tested on: SARS-CoV-2; assay: as §1, with “virus inactivation at 1 uM” for “inhibition of viral replication”, “analysis relative to control” for “analysis”; format: functional, Severe acute respiratory syndrome coronavirus 2
[10] = tested on: SARS-CoV-2; assay: as §1, with “virus inactivation at 5 uM” for “inhibition of viral replication”, “analysis relative to control” for “analysis”; format: functional, Severe acute respiratory syndrome coronavirus 2; conditions: time 48.25 hrs
[11] = molecular target: Voltage-gated inwardly rectifying potassium channel KCNH2 (Homo sapiens, UniProt Q12809); assay: Inhibition of hERG extracted from membrane (unknown origin) incubated for 4 hrs by fluorescence polarization assay; format: toxicity, cell membranes
Sequence of Voltage-gated inwardly rectifying potassium channel KCNH2 (Q12809 whole entry): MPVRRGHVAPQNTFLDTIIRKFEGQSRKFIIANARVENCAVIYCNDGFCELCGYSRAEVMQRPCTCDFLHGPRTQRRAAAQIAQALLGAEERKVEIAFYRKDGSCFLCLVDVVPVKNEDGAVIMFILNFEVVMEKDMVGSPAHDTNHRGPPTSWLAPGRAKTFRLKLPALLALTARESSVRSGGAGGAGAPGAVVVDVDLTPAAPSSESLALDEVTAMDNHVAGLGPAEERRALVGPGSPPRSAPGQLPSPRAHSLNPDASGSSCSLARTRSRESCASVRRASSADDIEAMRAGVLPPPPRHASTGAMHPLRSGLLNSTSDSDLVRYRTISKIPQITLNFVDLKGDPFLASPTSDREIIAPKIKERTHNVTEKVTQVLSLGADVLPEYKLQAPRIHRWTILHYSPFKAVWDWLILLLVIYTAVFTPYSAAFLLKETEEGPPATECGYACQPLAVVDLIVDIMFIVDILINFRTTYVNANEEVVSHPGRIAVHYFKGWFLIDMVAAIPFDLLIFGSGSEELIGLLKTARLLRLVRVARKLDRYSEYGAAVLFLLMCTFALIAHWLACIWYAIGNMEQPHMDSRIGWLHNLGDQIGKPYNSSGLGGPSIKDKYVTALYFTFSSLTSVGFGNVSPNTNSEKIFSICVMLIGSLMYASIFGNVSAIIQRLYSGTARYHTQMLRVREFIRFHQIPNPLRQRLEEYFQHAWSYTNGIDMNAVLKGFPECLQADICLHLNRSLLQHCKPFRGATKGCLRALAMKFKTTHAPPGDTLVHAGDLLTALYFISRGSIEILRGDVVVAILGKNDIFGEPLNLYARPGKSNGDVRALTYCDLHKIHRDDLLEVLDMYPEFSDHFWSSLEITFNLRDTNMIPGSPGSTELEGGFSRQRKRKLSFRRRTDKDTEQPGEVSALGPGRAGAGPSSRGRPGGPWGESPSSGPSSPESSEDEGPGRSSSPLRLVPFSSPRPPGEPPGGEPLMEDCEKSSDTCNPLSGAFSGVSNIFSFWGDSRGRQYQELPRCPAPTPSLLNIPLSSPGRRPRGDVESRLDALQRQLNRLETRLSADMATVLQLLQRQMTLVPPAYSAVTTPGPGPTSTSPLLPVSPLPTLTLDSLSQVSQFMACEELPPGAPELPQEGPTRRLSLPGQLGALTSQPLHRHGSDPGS

[12] = Severe acute respiratory syndrome coronavirus 2, time 48.25 hrs

| Structure (SMILES) | inhibition [1] | Activity [2] | Activity [3, 12] | IC50 [8] [µM] | further results |
| --- | --- | --- | --- | --- | --- |
| CCOC(=O)c1c(CSc2ccc(C)cc2C)n(Cc2ccc(-c3ccccc3)cc2)c2cc(Br)c(O)cc12 | Not active; No Significant Effect | Non-toxic | Not active; No Significant Effect Observed | – | – |
| CCOC(=O)c1c(CSc2ccccc2C(F)(F)F)n(C)c2cc(Br)c(O)cc12 | Not active; No Significant Effect | – | Not active; No Significant Effect Observed | – | – |
| CC(C)[N+](C)(CCOC(=O)C1c2ccccc2Oc2ccccc21)C(C)C [PROPANTHELINE] | – | – | – | – | half-life at 2 µM [4]: 21.3 min; half-life at 2 µM [5]: 52.1 min; remaining at 1 h, 2 µM [6]: 2.04%; remaining at 1 h, 2 µM [7]: 17.4% |
| CCOC(=O)c1c(CSc2ccc(F)cc2)n(C)c2cc(Br)c(O)cc12 | – | Non-toxic | – | – | inhibition [8]: inactive; Activity ([9]; time 48.25 hrs): <90%; Activity ([3]; time 48.25 hrs): 99.9% |
| CCOC(=O)c1c(CSc2ccc(C)cc2C)n(C)c2cc(Br)c(O)c(CN(C)C)c12 | – | Non-toxic | – | 1.5 | Activity ([9]; time 48.25 hrs): >99%; Activity [10]: >99%; IC50 [11]: 0.65 µM |
| Cc1ccc(Cn2c(CSc3c(C)cc(C)cc3C)c(C(=O)NC3CCN(C)CC3)c3cc(O)c(Br)cc32)cc1 | – | Non-toxic | – | – | – |
| CC(C)N1CCC(NC(=O)c2c(CSc3ccccc3)n(C)c3cc(Br)c(O)cc23)CC1 | – | Non-toxic | – | 6.6 | IC50 [11]: 7.09 µM |
| Cn1c(CSc2ccc(F)cc2)c(C(=O)NC(C)(C)C)c2cc(O)c(Br)cc21 | – | – | – | – | inhibition [8]: inactive |
| CCOC(=O)c1c(CSc2c(C)cc(C)cc2C)n(Cc2ccc(C)cc2)c2cc(Br)c(O)c(CN(C)C)c12 | – | Non-toxic | Not determined; No Significant Effect Observed | 10 | IC50 [11]: 3.85 µM |
| CCOC(=O)c1c(CSc2ccc(F)cc2)n(Cc2cccc3ccccc23)c2cc(Br)c(O)cc12 | – | Non-toxic | – | – | inhibition [8]: inactive; Activity [9, 12]: Not active; No Significant Effect Observed; Activity [10]: >90% |
| CCC(CC)COC(=O)[C@H](C)N[P@](=O)(OC[C@H]1O[C@@](C#N)(c2ccc3c(N)ncnn23)[C@H](O)[C@@H]1O)Oc1ccccc1 | – | – | – | 0.76 | – |
| CCOC(=O)c1c(CSc2ccccc2)n(C)c2cc(Br)c(O)cc12 | – | Non-toxic | – | 8.4 | Activity ([9]; time 48.25 hrs): <90% |
| CCOC(=O)c1c(CSc2c(C)cc(C)cc2C)n(Cc2cccc3ccccc23)c2cc(Br)c(O)cc12 | – | Non-toxic | Not active; No Significant Effect Observed | – | inhibition [8]: inactive |
| Cn1c(CSc2ccc(F)cc2F)c(C(=O)NC(C)(C)C)c2cc(O)c(Br)cc21 | – | Non-toxic | – | 4.6 | – |
| CC(C)N1CCC(NC(=O)c2c(CSc3ccc(F)cc3)n(C)c3cc(Br)c(O)cc23)CC1 | – | – | – | – | inhibition [8]: inactive |
| CCOC(=O)c1c(CSc2ccc(F)cc2C)n(Cc2cccc3ccccc23)c2cc(Br)c(O)cc12 | – | Non-toxic | Not active; No Significant Effect Observed | – | inhibition [8]: inactive |
| CCOC(=O)c1c(CSc2c(C)cc(C)cc2C)n(C)c2cc(Br)c(O)cc12 | – | Non-toxic | Not determined; No Significant Effect Observed | 8.75 | – |
| CCOC(=O)c1c(CSc2c(C)cc(C)cc2C)n(C)c2cc(Br)c(O)c(CN(C)C)c12 | Not active; No Significant Effect | Non-toxic | Not determined; No Significant Effect Observed | – | – |
| CCOC(=O)c1c(CSc2c(C)cc(C)cc2C)n(Cc2ccc(F)cc2)c2cc(Br)c(O)cc12 | – | Non-toxic | – | 1.3 | Activity [10]: >95% |
| CCOC(=O)c1c(CSc2ccc(F)cc2)n(Cc2ccc(F)cc2)c2cc(Br)c(O)cc12 | Not active; No Significant Effect | Non-toxic | – | – | Activity [10]: >95% |
| CCOC(=O)c1c(CSc2ccccc2F)n(C)c2cc(Br)c(O)cc12 | Not active; No Significant Effect | – | – | – | inhibition [8]: inactive; Activity ([9]; time 48.25 hrs): <90% |
| CCOC(=O)c1c(CSc2ccccc2)[nH]c2cc(Br)c(O)cc12 | Not active; No Significant Effect | Non-toxic | Not active; No Significant Effect Observed | – | – |
| Cn1c(CSc2ccc(F)cc2)c(C(=O)Nc2cc[nH]n2)c2cc(O)c(Br)cc21 | – | Non-toxic | – | 2.3 | IC50 [11]: > 30 µM |

| Structure (SMILES) | inhibition [1] | Activity [2] | Activity [3, 12] | IC50 [8] [µM] | further results |
| --- | --- | --- | --- | --- | --- |
| CCOC(=O)c1c(CSc2ccc(C)cc2C)n(Cc2ccc(Cl)cc2)c2cc(Br)c(O)cc12 | Not active; No Significant Effect | – | Not active; No Significant Effect Observed | – | – |
| CCOC(=O)c1c(CSc2ccc(F)cc2C)n(Cc2ccc(F)cc2)c2cc(Br)c(O)cc12 | Not active; No Significant Effect | Non-toxic | – | 12.7 | Activity [9, 12]: Not active; No Significant Effect Observed; Activity [10]: >95% |
| Cn1c(CSc2ccccc2)c(C(=O)N2CCC(N3CCOCC3)CC2)c2cc(O)c(Br)cc21 | – | Non-toxic | – | 3.1 | IC50 [11]: 13 µM |
| CC(C)N1CCN(C(=O)c2c(CSc3ccc(F)cc3)n(C)c3cc(Br)c(O)cc23)CC1 | – | Non-toxic | – | 1.7 | – |
| CCOC(=O)c1c(CSc2ccc(C)cc2C)n(Cc2ccc(C)cc2)c2cc(Br)c(O)cc12 | – | Non-toxic | – | 2.1 | Activity [10]: >99%; IC50 [11]: > 30 µM |
| CCOC(=O)c1c(CSc2ccccc2OC(F)(F)F)n(C)c2cc(Br)c(O)cc12 | Not active; No Significant Effect | – | Not active; No Significant Effect Observed | – | – |
| CCOC(=O)c1c(CSc2ccccc2OC)n(C)c2cc(Br)c(O)c(CN(C)C)c12 | Not active; No Significant Effect | – | Not active; No Significant Effect Observed | – | – |
| Cn1cc(NC(=O)c2c(CSc3ccccc3)n(C)c3cc(Br)c(O)cc23)cn1 | – | Non-toxic | – | 1.5 | – |
| CCOC(=O)c1c(CSc2ccc(C)cc2C)n(Cc2ccc(C#N)cc2)c2cc(Br)c(O)cc12 | Not active; No Significant Effect | Non-toxic | Not active; No Significant Effect Observed | – | – |
| CCOC(=O)c1c(CSc2ccccc2OC)n(C)c2cc(Br)c(O)cc12 | Not active; No Significant Effect | – | Not active; No Significant Effect Observed | – | – |
| CCOC(=O)c1c(CSc2ccc(F)cc2C)n(Cc2ccc(C)cc2)c2cc(Br)c(O)cc12 | – | Non-toxic | – | 10 | Activity [9, 12]: Not active; No Significant Effect Observed; Activity [10]: >50% |
| CCOC(=O)c1c(CSc2ccc(F)cc2F)n(C)c2cc(Br)c(O)cc12 | inactive | – | Not active; No Significant Effect Observed | – | inhibition [8]: inactive |
| CCOC(=O)c1c(CSc2ccc(C)cc2C)n(Cc2ccc(C(C)(C)C)cc2)c2cc(Br)c(O)cc12 | Not active; No Significant Effect | Non-toxic | Not active; No Significant Effect Observed | – | – |
| CCOC(=O)c1c(CSc2ccccc2)n(Cc2ccc(F)cc2)c2cc(Br)c(O)cc12 | – | Non-toxic | – | 1.1 | Activity [10]: >99%; IC50 [11]: > 30 µM |
| CCOC(=O)c1c(CSc2ccc(F)cc2)n(C)c2cc(Br)c(O)c(CN(C)C)c12 | Not active; No Significant Effect | Non-toxic | – | – | – |
| CN1CCC(NC(=O)c2c(CSc3ccc(F)cc3)n(C)c3cc(Br)c(O)cc23)CC1 | – | Non-toxic | – | 3.8 | – |
| CCOC(=O)c1c(CSc2ccccc2C(F)(F)F)n(C)c2cc(Br)c(O)c(CN(C)C)c12 | Not active; No Significant Effect | – | Not active; No Significant Effect Observed | – | – |
| CCOC(=O)c1c(CSc2ccccc2)n(Cc2cccc3ccccc23)c2cc(Br)c(O)cc12 | – | – | Not active; No Significant Effect Observed | – | inhibition [8]: inactive |
| CCOC(=O)c1c(CSc2ccc(F)cc2)n(Cc2ccc(C)cc2)c2cc(Br)c(O)cc12 | Not active; No Significant Effect | Non-toxic | Not active; No Significant Effect Observed | – | – |
| CCOC(=O)c1c(CSc2ccccc2OC(F)(F)F)n(C)c2cc(Br)c(O)c(CN(C)C)c12 | Not active; No Significant Effect | – | Not active; No Significant Effect Observed | – | – |
| CCOC(=O)c1c(CSc2ccc(C)cc2C)n(Cc2ccc(F)cc2)c2cc(Br)c(O)cc12 | Not active; No Significant Effect | Non-toxic | Not active; No Significant Effect Observed | – | – |
| CC(C)N1CCN(C(=O)c2c(CSc3ccccc3)n(C)c3cc(Br)c(O)cc23)CC1 | – | Non-toxic | – | 3.05 | IC50 [11]: 1.19 µM |

Reference: ChEMBL document CHEMBL6134895, “Strategic Design and Optimization of Umifenovir Analogues: Balancing Antiviral Efficacy and hERG Toxicity against SARS-CoV-2” (J Med Chem, 2025)
